Test results reported in patent US20250011878A1, “METHOD TO DETECT RNA BIOMARKERS” (ITALFARMACO SPA, priority 2021, published 2025).

Tested on: human monocytes
Experiment: RNAseq gene expression in purified human monocytes treated with ITF3756 and/or TNF-α
Assay type: cell-based
Description: PBMCs used for the experiments were obtained from Buffy Coats of healthy donors (all samples tested negative for transmissible diseases as required for blood transfusion) separated over a Ficoll-Hypaque gradient (Biochrom). Monocytes were purified by negative selection from 100×10^6 PBMC using Pan Monocytes Isolation Kit (Milteny) following manufacturer's instructions. By Pan Monocyte Isolation kit untouched monocytes are isolated from human PBMCs and the simultaneous enrichment of classical (CD14^++CD16^−), non classical (CD14^+CD16^++) and intermediate (CD14^++CD16^+) monocytes is achieved. Non-monocytes, such as T cells, NK cells, B cells, dendritic cells, and basophils are indirectly magnetically labeled using a cocktail of biotin-conjugated antibodies and anti-Biotin MicroBeads. Briefly, 400 μL of Buffer (PBS 1×, 0.5% BSA and 2 mM EDTA), 100 μL of FcR Blocking Reagent and 100 μL of Biotin-Antibody Cocktail were added to PBMC, previously washed with PBS by centrifugation 300×g for 5 minutes, mixed and incubate for 5 minutes in the refrigerator (2-8° C.). After incubation, 300 μL of Buffer and 200 μL of anti-biotin microbeads were added to the cells, mixed and incubate further for 10 minutes in the refrigerator. After incubation cells were processed by subsequent magnetic cell separation. Cell suspension was applied onto the column and the flow-through containing unlabeled cells, representing the enriched monocytes, was collected. Purified monocytes were washed with Buffer by centrifugation 300×g for 5 minutes and counted in PBS. Purified monocytes (1,0×10^6/ml) were pre-treated for 2 h with ITF3756 1 μM or DMSO (0.005%) in 12-well plates in 1 ml final volume of complete medium (RPMI (Biochrom), FCS 10% and penicillin/streptomycin 1× (Sigma)). The cells were then stimulated or not with TNF-α (100 ng/mL, Peprotech) for 4h. After incubation with ITF3756 and TNF-α, the cells were collected, washed with PBS by centrifugation 300×g for 5 minutes and stored at −80° C. Samples were thawed on the bench for 2 minutes and total RNA was extracted with Trizol reagent (Thermo Fisher Scientific), following manufacturer's instructions. Briefly, Trizol reagent (0.75 ml Trizol per 5-10×10^6 cells) was added to the samples and the samples were incubated at room temperature (RT) for 5 minutes. After incubation, chloroform (150 μL per 0.75 mL Trizol) was added to the samples and after 3 minutes of incubation at RT, samples were centrifuged for 12000×g for 14 minutes at 4° C. After centrifugation, the mixture separates into 3 phases and RNA remains in the aqueous phase. The aqueous phase was removed for each sample and placed in new tubes, and isopropanol (0,375 ml per 0.75 ml of Trizol) was added in each tube. Samples was incubated for 30 minutes in the refrigerator (2-8° C.). After incubation, samples were centrifugated for 12000×g for 10 minutes at 4° C., the supernatant was removed and 75% ethanol (0.75 ml per 0.75 ml of Trizol) was added to samples. Samples were centrifuged for 7500×g for 5 minutes at 4° C., and the supernatant discarded. RNA was air dried on the bench for 5-10 minutes. RNA Samples was then resuspended in water (10-50 μL). The scheme of the experimental procedures carried out to generate the RNA sequence data is represented in FIG. 1. To determine the quantity and the integrity/purity of RNA samples, check controls were first performed by the Agilent Technologies 2100 Bioanalyzer using RNA 6000 LabChip® kit (Agilent #5067-1511). The Bioanalyzer is a bio-analytical device based on a combination of microfluidic chips, voltage-induced size separation in gel filled channels and laser-induced fluorescence (LIF) detection on a miniaturized scale. The RNA Integrity Number (RIN) software algorithm allows the classification of total RNA, based on a numbering system from 1 to 10, (with 1 being the most degraded and 10 being the most intact). […] Purified samples were processed using TruSeq RNA-Seq v2 Library Preparation Kit. […]

[1] = ITF3756 1 μM in combination with TNF-α 100 ng/mL, RNAseq
[2] = ITF3756 1 μM in the presence of TNF-α 100 ng/mL, RNAseq
[3] = ITF3756 + TNFα vs vehicle-treated control (don)
[4] = M2 marker, human monocytes, ITF3756 1 μM, RNAseq
[5] = single treatment (ITF3756 1 μM or TNF-α 100 ng/mL), RNAseq, vs control
[6] = single treatment (ITF3756 1 μM), RNAseq, vs control
[7] = single treatment vs vehicle-treated control (don), monocytes 4 h, padj<0.05
[8] = versus control, not shared with TNF-α or ITF3756+TNF-α

SMILES: O=C(NO)c1ccc(Cn2nnnc2-c2cccs2)cc1 [ITF3756, N-hydroxy-4-((5-(thiophen-2-yl)-1 H-tetrazol-1-yl)methyl)benzamide]
- CD40 gene expression (ITF3756 1 μM combined with TNF-α 100 ng/mL, RNAseq): slightly increases the upregulation of CD40 expression induced by TNF-α alone
- ADA gene expression [1]: upregulation
- FATP1/SLC27A1 gene expression [1]: the basal expression of the gene is maintained
- IRF6 gene expression [1]: no effect
- NBEAL2 gene expression [1]: increases the expression
- ANXA6 gene expression [2]: the upregulation is even stronger and probably synergistic
- CD84 gene expression [2]: downregulation is further enhanced
- CD163 gene expression [2]: down-modulated
- CD204/MSR1 gene expression [2]: strongly down-modulated
- CD206/MRC1 gene expression [2]: strongly down-modulated
- CXCL2 gene expression [2]: reverts the upregulation induce by TNF establishing a normal level of expression
- LTBP4 gene expression [2]: counters this downregulation
- RANK/TNFRSF11a gene expression [2]: downregulation of RANK/TNFRSF11a is increased compared to single treatments
- STAB1 gene expression [2]: synergistically reduced
- Genes Down regulated (number of genes modulated) [3]: 2329
- Genes Up regulated (number of genes modulated) [3]: 2282
- MMP9 gene expression (ITF3756+TNF-α, compared to untreated control, RNAseq): No modulation
- Fold change ADA [4]: −1.9
- Fold change CD163 [4]: −4
- Fold change CD204/MSR1 [4]: −2.6
- Fold change CD206/MRC1 [4]: −13.3
- Fold change MMP9 [4]: −3.6
- Fold change STAB1 (Stabilin-1/Clever-1) [4]: −14
- downregulation of PD-L1 (CD274) gene expression (cells treated with TNF-α+ITF3756, RNAseq): 59%
- ADA gene expression [5]: downmodulated
- IRF6 gene expression [5]: upregulates the expression
- LTBP4 gene expression [5]: upregulates the expression
- MMP9 gene expression (single treatment (ITF3756 1 μM or TNF-α 100 ng/mL), RNAseq, vs untreated control): down-modulated
- ANXA6 gene expression [6]: robust upregulation
- CD40 gene expression [6]: upregulates
- CD84 gene expression [6]: strongly downregulates
- CD163 gene expression [6]: down-modulated
- CD204/MSR1 gene expression [6]: down-modulated
- CD206/MRC1 gene expression [6]: strongly down-modulated
- CXCL2 gene expression [6]: decreases the expression
- CXCL3 gene expression [6]: reduced the expression
- FATP1/SLC27A1 gene expression [6]: up-regulates the expression
- NBEAL2 gene expression [6]: increases the expression
- RANK/TNFRSF11a gene expression [6]: strong downregulation
- STAB1 gene expression [6]: strongly downregulated
- CD276 gene expression (single treatment (ITF3756), vs control): down-regulated the expression
- Genes Down regulated (number of genes modulated) [7]: 1503
- Genes Up regulated (number of genes modulated) [7]: 1499
- genes specifically downregulated (Venn diagram) [8]: 386
- genes specifically upregulated (Venn diagram) [8]: 537
